Test results: patent publication US12435077B2, “Oxazolidinone compound and methods of use thereof as an antibacterial agent” (priority 2020, dated 2025)
pIC50: −log10 of the molar value.

Experiments:
in vivo [1] = details: male, dog, iv
Description: Plasma pharmacokinetic parameters for clearance, volume of distribution, half-life, mean residence time (MRT) and oral bioavailability were determined in dogs from oral administration and IV administration studies. Four male dogs, typically weighing 8-12 kilograms, were fasted overnight prior to dosing. Compounds were prepared for oral and IV dosing by addition to a vehicle, depending on the dose used. For a typical preparation, 1 mg per mL (IV) or 1.5 mg per mL (oral) of test compound was added to vehicle comprised of 20% dimethyl sulfoxide (DMSO), 60% polyethylene glycol 400 (PEG400) and 20% water. IV formulation was administered to two dogs via the saphenous or cephalic vein, and oral dosing was administered to two dogs via oral gavage. Blood was collected by the cephalic or jugular vein, typically at predose, 2, 8, 15, 30 mins, 1, 2, 4, 6, 8 and 24 hours post-dose for IV, and at predose, 15, 30 mins, 1, 2, 4, 6, 8, and 24 hours for oral dosing. Samples were collected in K2EDTA tubes, stored on ice, and centrifuged. Plasma was transferred to a micro titer plate and stored at −70° C. until analysis. Plasma samples were extracted using protein precipitation and analyzed by liquid chromatography separation followed by mass spec detection (LC-MS/MS), using a standard curve for each compound. Plasma pharmacokinetic parameters were calculated for IV and oral dosing data by non-compartmental methods. Oral bioavailability was determined as the ratio of the dose-normalized plasma area under the curve (AUC) following oral dosing verses IV dosing. Plasma pharmacokinetic parameters for clearance, volume of distribution, half-life, and mean residence time (MRT) were determined in dogs from IV cassette administration studies. Two male dogs, typically weighing 8-12 kilograms, were fasted overnight prior to dosing. Compounds were prepared for IV dosing by addition to a vehicle, depending on the dose used. For a typical preparation, 1 mg per mL (IV) of up to 5 test compounds were added to vehicle comprised of 20% dimethyl sulfoxide (DMSO), 60% polyethylene glycol 400 (PEG400) and 20% water. IV formulation was administered to two dogs via the saphenous or cephalic vein. Blood was collected by the cephalic or jugular vein, typically at predose, 2, 8, 15, 30 mins, 1, 2, 4, 6, 8 and 24 hours post-dose. Samples were collected in K2EDTA tubes, stored on ice, and centrifuged. Plasma was transferred to a micro titer plate and stored at −70° C. until analysis. Plasma samples were extracted using protein precipitation and analyzed by liquid chromatography separation followed by mass spec detection (LC-MS/MS), using a standard curve for each compound. Plasma pharmacokinetic parameters were calculated by non-compartmental methods.

[2] = Plasma protein binding, rat plasma; assay type: in vitro ADME
Description: (§1) Binding of compounds to plasma proteins from rat and dog was determined by equilibrium dialysis of the appropriate species plasma at 37° C. for 4 hours in the presence of 2.5 uM of test compound. Plasma samples were precipitated and separated by centrifugation. The supernatant was analyzed by mass spec detection (LC-MS/MS), using a standard curve for each compound. The fraction of unbound compound was calculated per the following: • Fraction Unbound (fu)=Peak Area Ratiobuffer/Peak Area Ratioplasma • where • Peak Area Ratiobuffer=Peak area ratio of analyte/internal standard in buffer • Peak Area Ratioplasma=Peak area ratio of analyte/internal standard in plasma

[3] = Plasma protein binding, dog plasma; assay type: in vitro ADME
Description: as §1

in vivo [4] = details: male, rat, iv
Description: Plasma pharmacokinetic parameters for clearance, volume of distribution, half-life and oral bioavailability were determined in rats from oral administration and IV administration studies. 4 male rats, typically weighing 225-260 gram, were fasted overnight prior to dosing. Compounds were prepared for oral and IV dosing by addition to a vehicle, depending on the dose used. For a typical preparation, 1 mg per mL (IV) or 1.5 mg per mL (oral) of test compound was added to vehicle comprised of 20% dimethyl sulfoxide (DMSO), 60% polyethylene glycol 400 (PEG400) and 20% water. Intravenous (IV) formulation was administered to two rats via pre-cannulated jugular vein, and oral dosing was administered to two rats via oral gavage. Blood was collected by pre-cannulated artery, typically at predose, 2, 8, 15, 30 min, 1, 2, 4, 6, and 8 hours post-dose for IV, and at predose, 15, 30 mins, 1, 2, 4, 6, 8 hours for oral dosing. Samples were collected in K2EDTA tubes, stored on ice, and centrifuged. Plasma was transferred to a micro titer plate and stored at −70° C. until analysis. Plasma samples were extracted using protein precipitation and analyzed by liquid chromatography separation followed by mass spec detection (LC-MS/MS), using a standard curve for each compound. Plasma pharmacokinetic parameters were calculated for IV and oral dosing data by non-compartmental methods. Oral bioavailability was determined as the ratio of the dose-normalized plasma area under the curve (AUC) following oral dosing vs. IV dosing. Plasma pharmacokinetic parameters for clearance, volume of distribution, half-life and mean residence time (MRT) were determined in rats from IV cassette administration studies. Two male rats typically weighing 225-260 gram, were fasted overnight prior to dosing. Compounds were prepared for IV dosing by addition to a vehicle, depending on the dose used. For a typical preparation, 1 mg per mL (IV) of up to 5 test compounds were added to vehicle comprised of 20% dimethyl sulfoxide (DMSO), 60% polyethylene glycol 400 (PEG400) and 20% water. IV formulation was administered to two rats via pre-cannulated jugular vein. Blood was collected by pre-cannulated artery, typically at predose, 2, 8, 15, 30 mins, 1, 2, 4, 6, and 8 hours postdose. Samples were collected in K2EDTA tubes, stored on ice, and centrifuged. Plasma was transferred to a micro titer plate and stored at −70° C. until analysis. Plasma samples were extracted using protein precipitation and analyzed by liquid chromatography separation followed by mass spec detection (LC-MS/MS), using a standard curve for each compound. Plasma pharmacokinetic parameters were calculated by non-compartmental methods.

[5] = tested on: Mycobacterium tuberculosis (Mtb-GFP; H37Rv pMSP12::GFP); assay type: cell-based; details: pH 6.8, 7-day growth, 95% growth inhibition; for Mtb Cho MITC95: cholesterol as carbon source; for Mtb Glu MITC95: glucose as carbon source
[6] = tested on: mitochondrial protein synthesis in HepG2 cells; experiment: Mitochondrial protein synthesis assay; assay type: cell-based; details: Homo sapiens, 96 h, 4 days, COX-I vs SDH-A / Janus Green, read-out: MPS IC50
Description: Inhibition of mitochondrial protein synthesis was assessed in HepG2 cells by comparing the levels of two subunits of oxidative phosphorylation enzyme complexes, subunit I of Complex IV (COX-I) and the 70 kDa subunit of Complex II (SDH-A). COX-I is mitochondrial DNA encoded and SDH-A is nuclear DNA encoded.

[7] = comparison compounds from WO2017/070024, read-out: Rat fu
[8] = comparison compounds from WO2017/070024, read-out: Dog fu

## COC(=O)NC[C@H]1CN(c2cc(F)c(N3CCS(=O)(=O)CC3)c(F)c2)C(=O)O1 [Example 1, methyl ({(5S)-3-[4-(1,1-dioxo-1λ^6-thiomorpholin-4-yl)-3,5-difluorophenyl]-2-oxo-1,3-oxazolidin-5-yl}methyl)carbamate]
In vivo [1]
  MRT: 12.6 h
  clearance: 1.9 mL/min/kg
[2]; equilibrium dialysis, 37° C., 4 hours, 2.5 uM, read-out: Rat fu
  fraction unbound at 4 h, 2.5 uM: 0.42
[3]; equilibrium dialysis, 37° C., 4 hours, 2.5 uM, read-out: Dog fu
  fraction unbound at 4 h, 2.5 uM: 0.69
In vivo [4]
  MRT: 1.7 h
  Vd: 0.9 L/kg
  clearance: 8.5 mL/min/kg
[5]
  Mtb Cho MITC95: 1.16 µM
  Mtb Glu MITC95: 0.71 µM

## NC[C@H]1CN(c2cc(F)c(N3CCOCC3)c(F)c2)C(=O)O1 [Example 59 from WO2017/070024]
In vivo [1]
  MRT: 1.3 h
  Vd: 4.2 L/kg
  clearance: 53 mL/min/kg
[2]; [7]
  fraction unbound at 4 h, 2.5 uM: 0.57
[3]; [8]
  fraction unbound at 4 h, 2.5 uM: 0.81
In vivo [4]
  MRT: 0.8 h
  Vd: 2 L/kg
  clearance: 43 mL/min/kg

## NC[C@H]1CN(c2cnc(N3CCS(=O)(=O)CC3)c(F)c2)C(=O)O1 [Example 48 from WO2017/070024]
In vivo [1]
  MRT: 1.3 h
  Vd: 1.5 L/kg
  clearance: 18 mL/min/kg
[2]; [7]
  fraction unbound at 4 h, 2.5 uM: 0.83
[3]; [8]
  fraction unbound at 4 h, 2.5 uM: 0.87
In vivo [4]
  MRT: 0.5 h
  Vd: 2.5 L/kg
  clearance: 85 mL/min/kg

## CC(=O)NC[C@H]1CN(c2ccc(N3CCOCC3)c(F)c2)C(=O)O1 [linezolid]
[6]
  pIC50: 5.10
[5]
  Mtb Cho MITC95: 3.14 µM
  Mtb Glu MITC95: 4.58 µM
